{"source": "patent US8853230B2", "about": "“Inhibitors of JAK” (Portola Pharmaceuticals, Inc., priority 2009, dated 2014)", "format_in_all_cases": "biochemical", "key": {"JAK1": {"molecular_target": "T1, JAK1 (Homo sapiens, UniProt P23458)", "T1 construct": "5 μl of catalytic domain recombinant Kinase enzyme+Tyr peptide substrate (Invitrogen, Calif.); purchased Invitrogen", "T1 sequence (P23458 875-1153 limits assumed)": "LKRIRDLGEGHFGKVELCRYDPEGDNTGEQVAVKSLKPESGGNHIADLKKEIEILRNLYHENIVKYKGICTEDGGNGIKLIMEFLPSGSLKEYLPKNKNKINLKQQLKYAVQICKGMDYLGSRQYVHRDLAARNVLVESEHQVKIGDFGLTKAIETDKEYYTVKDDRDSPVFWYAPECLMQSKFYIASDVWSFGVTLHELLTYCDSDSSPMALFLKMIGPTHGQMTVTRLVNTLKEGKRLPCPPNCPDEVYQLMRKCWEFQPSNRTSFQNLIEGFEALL", "experiment": "Z'-LYTE kinase assay, JAK1 tyrosine phosphorylation activity", "conditions": "read-out: JAK 1 IC50", "description": "(§1) JAK and TYK2 tyrosine phosphorylation activity is measured using the Z′-LYTE™ Technology developed by Invitrogen Corporation (Carlsbad, Calif.). For JAK1, JAK2 and JAK3 the Z′-LYTE™ Kinase Assay Kit-Tyr6 Peptide (part number PV4122) was used. For TYK2 the Z′-LYTE™ Kinase Assay Kit-Tyr6 Peptide (part number PV3192) was used. The Z′-LYTE™ biochemical assay employs a fluorescence resonance energy transfer (FRET) coupled-enzyme format and is based on the differential sensitivity of phosphorylated and non-phosphorylated peptides to proteolitic cleavage. The assay uses a synthetic peptide substrate that is labelled with a donor fluorophore (coumarin) and an acceptor fluorophore (fluorescein) that make up a FRET pair. In the primary reaction (the Kinase Reaction), the kinase transfers the γ-phosphate of ATP to a single tyrosine residue on the substrate, while the presence of a kinase inhibitor in the primary reaction suppresses phosphorylation. In the secondary reaction (the Development Reaction), a site-specific protease (the Development Reagent) is added. The development buffer quenches the Kinase Reaction, while the protease recognizes and cleaves non-phosphorylated Z′-LYTE™ peptide substrate. Cleavage disrupts FRET between the donor and acceptor fluorophores on the non-phosphoryleted substrate, while uncleaved, phosphorylated substrate maintains FRET.\n(§2) To test the ability of candidate molecules to inhibit JAK tyrosine phosphorylation activity, molecules are reconstituted in 100% DMSO and serially diluted 1:10 in polypropylene v-bottom microtiter plates. The candidate molecules are then diluted 1:25 into kinase buffer and 2.5 μl transferred into duplicate wells of a 384 well low volume black microtiter assay plate (Corning, USA). The final DMSO concentration in the assay is 1%. The kinase reaction contains 2.5 μl of a candidate molecule, 5 μl of catalytic domain recombinant Kinase enzyme+Tyr peptide substrate (Invitrogen, Calif.) and 2.5 μl ATP (Invitrogen, Calif.). The kinase reaction is allowed to procede for 1 hour at room temperature. The protease reaction is initiated by the addition of 5 μl Development Reagent (Invitrogen, Calif.). After 1 hour incubation at room temperature the fluorescence is measured using a FlexStation plate reader (Molecular Devices, Sunnyvale, Calif.). The reader settings used are as follows: Fluorescence mode, endpoint, top read, excitation 400 nm, emission 445 nm and 520 nm, Auto Cutoff 435 nm and 515 nm, PMT sensitivity high, 6 reads per well. Inhibition of JAK activity is calculated as the percent phosphorylation of substrate in the presence of inhibitor compared to the percent phosphorylation of substrate in the absence of inhibitor. IC50's were derived using Xlfit 4.3 (IDBS, UK), 4 parameter logistic model 205: Y=(A+((B−A)/(1+((C/x)^D))))."}, "JAK2": {"molecular_target": "T2, JAK2 (Homo sapiens, UniProt O60674)", "T2 construct": "5 μl of catalytic domain recombinant Kinase enzyme+Tyr peptide substrate (Invitrogen, Calif.); purchased Invitrogen", "T2 sequence (O60674 849-1124 limits assumed)": "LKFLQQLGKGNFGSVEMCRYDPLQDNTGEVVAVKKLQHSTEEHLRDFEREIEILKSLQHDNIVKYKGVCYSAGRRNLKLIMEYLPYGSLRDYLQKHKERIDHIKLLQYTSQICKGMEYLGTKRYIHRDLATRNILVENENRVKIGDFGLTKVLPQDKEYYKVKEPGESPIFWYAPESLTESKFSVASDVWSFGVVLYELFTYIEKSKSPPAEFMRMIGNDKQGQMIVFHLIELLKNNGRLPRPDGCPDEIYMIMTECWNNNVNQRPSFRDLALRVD", "experiment": "Z'-LYTE kinase assay, JAK2 tyrosine phosphorylation activity", "description": "as §1, §2"}, "JAK3": {"molecular_target": "T3, JAK3 (Homo sapiens, UniProt P52333)", "T3 construct": "5 μl of catalytic domain recombinant Kinase enzyme+Tyr peptide substrate (Invitrogen, Calif.); purchased Invitrogen", "T3 sequence (P52333 822-1111 limits assumed)": "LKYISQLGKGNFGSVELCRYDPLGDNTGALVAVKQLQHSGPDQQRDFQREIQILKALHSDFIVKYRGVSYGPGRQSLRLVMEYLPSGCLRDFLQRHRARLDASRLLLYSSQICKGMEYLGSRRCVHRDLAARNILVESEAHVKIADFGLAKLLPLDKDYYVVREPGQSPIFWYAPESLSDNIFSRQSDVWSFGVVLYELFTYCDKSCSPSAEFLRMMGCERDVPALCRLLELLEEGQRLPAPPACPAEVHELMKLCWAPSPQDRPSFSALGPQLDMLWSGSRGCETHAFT", "experiment": "Z'-LYTE kinase assay, JAK3 tyrosine phosphorylation activity", "description": "as §1, §2"}, "TYK2": {"molecular_target": "T4, TYK2 (Homo sapiens, UniProt P29597)", "T4 construct": "5 μl of catalytic domain recombinant Kinase enzyme+Tyr peptide substrate (Invitrogen, Calif.); purchased Invitrogen", "T4 sequence (P29597 897-1176 limits assumed)": "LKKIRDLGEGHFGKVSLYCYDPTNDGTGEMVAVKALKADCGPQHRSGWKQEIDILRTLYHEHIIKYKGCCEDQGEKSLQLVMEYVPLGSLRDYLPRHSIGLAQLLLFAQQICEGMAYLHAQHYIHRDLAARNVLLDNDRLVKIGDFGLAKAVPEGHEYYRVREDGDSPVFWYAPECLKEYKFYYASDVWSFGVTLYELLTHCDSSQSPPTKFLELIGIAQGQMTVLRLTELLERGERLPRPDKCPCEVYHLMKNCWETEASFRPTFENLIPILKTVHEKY", "experiment": "Z'-LYTE kinase assay, TYK2 tyrosine phosphorylation activity", "description": "as §1, §2"}}}
{"smiles": "CNC(=O)c1cnc(Nc2cccc(NC(=O)COC)c2)nc1NCc1ccccc1", "note": "[Example 113, 4-(benzylamino)-2-(3-(2-methoxyacetamido)phenylamino)-N-methylpyrimidine-5-carboxamide]", "values": [{"measurement": "IC50", "setting": "JAK1", "value": "> 1000", "unit": "nM"}, {"measurement": "IC50", "setting": "JAK2", "value": "> 1000", "unit": "nM"}, {"measurement": "IC50", "setting": "JAK3", "value": "100 to 1000", "unit": "nM"}, {"measurement": "IC50", "setting": "TYK2", "value": "100 to 1000", "unit": "nM"}]}
{"smiles": "CNC(=O)c1cnc(Nc2cccc(NC(=O)COC)c2)nc1NC1Cc2ccccc2C1", "note": "[Example 114, 4-(2,3-dihydro-1H-inden-2-ylamino)-2-(3-(2-methoxyacetamido)phenylamino)-N-methylpyrimidine-5-carboxamide]", "values": [{"measurement": "IC50", "setting": "JAK1", "value": "10 to 100", "unit": "nM"}, {"measurement": "IC50", "setting": "JAK2", "value": "10 to 100", "unit": "nM"}, {"measurement": "IC50", "setting": "JAK3", "value": "10 to 100", "unit": "nM"}, {"measurement": "IC50", "setting": "TYK2", "value": "10 to 100", "unit": "nM"}]}
{"smiles": "CC(=O)Nc1cccc(Nc2ncc(C(N)=O)c(NCC3CCCNC3)n2)c1", "note": "(stereo not drawn) [Example 116, 2-(3-acetamidophenylamino)-4-(piperidin-3-ylmethylamino)pyrimidine-5-carboxamide]", "values": [{"measurement": "IC50", "setting": "JAK1", "value": "10 to 100", "unit": "nM"}, {"measurement": "IC50", "setting": "JAK2", "value": "10 to 100", "unit": "nM"}, {"measurement": "IC50", "setting": "JAK3", "value": "10 to 100", "unit": "nM"}, {"measurement": "IC50", "setting": "TYK2", "value": "10 to 100", "unit": "nM"}]}
{"smiles": "CC(=O)Nc1cccc(Nc2ncc(C(N)=O)c(NCC3CCCN(C(=O)Nc4ccc(F)cc4)C3)n2)c1", "note": "(stereo not drawn) [Example 118, 2-(3-acetamidophenylamino)-4-((1-(4-fluorophenylcarbamoyl)piperidin-3-yl)methylamino)pyrimidine-5-carboxamide]", "values": [{"measurement": "IC50", "setting": "JAK1", "value": "10 to 100", "unit": "nM"}, {"measurement": "IC50", "setting": "JAK2", "value": "10 to 100", "unit": "nM"}, {"measurement": "IC50", "setting": "JAK3", "value": "1 to 10", "unit": "nM"}, {"measurement": "IC50", "setting": "TYK2", "value": "10 to 100", "unit": "nM"}]}
{"smiles": "CC(=O)Nc1cccc(Nc2ncc(C(N)=O)c(NCC3CCCN(S(C)(=O)=O)C3)n2)c1", "note": "(stereo not drawn) [Example 120, 2-(3-acetamidophenylamino)-4-((1-(methylsulfonyl)piperidin-3-yl)methylamino)pyrimidine-5-carboxamide]", "values": [{"measurement": "IC50", "setting": "JAK1", "value": "10 to 100", "unit": "nM"}, {"measurement": "IC50", "setting": "JAK2", "value": "10 to 100", "unit": "nM"}, {"measurement": "IC50", "setting": "JAK3", "value": "1 to 10", "unit": "nM"}, {"measurement": "IC50", "setting": "TYK2", "value": "10 to 100", "unit": "nM"}]}
{"smiles": "C[C@@H](Nc1nc(Nc2cccc(N(C)C(=O)N3CCCC3)c2)ncc1C(N)=O)c1ccccc1", "note": "[Example 122, (R)-2-(3-(N-methylpyrrolidine-1-carboxamido)phenylamino)-4-(1-phenylethylamino)pyrimidine-5-carboxamide]", "values": [{"measurement": "IC50", "setting": "JAK1", "value": "100 to 1000", "unit": "nM"}, {"measurement": "IC50", "setting": "JAK2", "value": "10 to 100", "unit": "nM"}, {"measurement": "IC50", "setting": "JAK3", "value": "1 to 10", "unit": "nM"}, {"measurement": "IC50", "setting": "TYK2", "value": "100 to 1000", "unit": "nM"}]}
{"smiles": "NC(=O)c1cnc(Nc2cccc(NC(=O)N3CCCC3)c2)nc1NCC1CC1", "note": "[Example 123, 4-(cyclopropylmethylamino)-2-(3-(pyrrolidine-1-carboxamido)phenylamino)pyrimidine-5-carboxamide]", "values": [{"measurement": "IC50", "setting": "JAK1", "value": "10 to 100", "unit": "nM"}, {"measurement": "IC50", "setting": "JAK2", "value": "10 to 100", "unit": "nM"}, {"measurement": "IC50", "setting": "JAK3", "value": "1 to 10", "unit": "nM"}, {"measurement": "IC50", "setting": "TYK2", "value": "1 to 10", "unit": "nM"}]}
{"smiles": "COCC(=O)Nc1cccc(Nc2ncc(C(N)=O)c(NCC3CC3)n2)c1", "note": "[Example 124, 4-(cyclopropylmethylamino)-2-(3-(2-methoxyacetamido)phenylamino)pyrimidine-5-carboxamide]", "values": [{"measurement": "IC50", "setting": "JAK1", "value": "10 to 100", "unit": "nM"}, {"measurement": "IC50", "setting": "JAK2", "value": "10 to 100", "unit": "nM"}, {"measurement": "IC50", "setting": "JAK3", "value": "1 to 10", "unit": "nM"}, {"measurement": "IC50", "setting": "TYK2", "value": "1 to 10", "unit": "nM"}]}
{"smiles": "COCC(=O)N(C)c1cccc(Nc2ncc(C(N)=O)c(NCC3CC3)n2)c1", "note": "[Example 125, 4-(cyclopropylmethylamino)-2-(3-(2-methoxy-N-methylacetamido)phenylamino)pyrimidine-5-carboxamide]", "values": [{"measurement": "IC50", "setting": "JAK1", "value": "10 to 100", "unit": "nM"}, {"measurement": "IC50", "setting": "JAK2", "value": "10 to 100", "unit": "nM"}, {"measurement": "IC50", "setting": "JAK3", "value": "10 to 100", "unit": "nM"}, {"measurement": "IC50", "setting": "TYK2", "value": "10 to 100", "unit": "nM"}]}
{"smiles": "CC(=O)N(C)c1cccc(Nc2ncc(C(N)=O)c(NCC3CC3)n2)c1", "note": "[Example 126, 4-(cyclopropylmethylamino)-2-(3-(N-methylacetamido)phenylamino)pyrimidine-5-carboxamide]", "values": [{"measurement": "IC50", "setting": "JAK1", "value": "10 to 100", "unit": "nM"}, {"measurement": "IC50", "setting": "JAK2", "value": "10 to 100", "unit": "nM"}, {"measurement": "IC50", "setting": "JAK3", "value": "10 to 100", "unit": "nM"}, {"measurement": "IC50", "setting": "TYK2", "value": "10 to 100", "unit": "nM"}]}
{"smiles": "CN(C(=O)N1CCCC1)c1cccc(Nc2ncc(C(N)=O)c(NCC3CC3)n2)c1", "note": "[Example 127, 4-(cyclopropylmethylamino)-2-(3-(N-methylpyrrolidine-1-carboxamido)phenylamino)pyrimidine-5-carboxamide]", "values": [{"measurement": "IC50", "setting": "JAK1", "value": "100 to 1000", "unit": "nM"}, {"measurement": "IC50", "setting": "JAK2", "value": "10 to 100", "unit": "nM"}, {"measurement": "IC50", "setting": "JAK3", "value": "10 to 100", "unit": "nM"}, {"measurement": "IC50", "setting": "TYK2", "value": "100 to 1000", "unit": "nM"}]}
{"smiles": "CNc1nc(Nc2cccc(NC(=O)N3CCCC3)c2)ncc1C(N)=O", "note": "[Example 133, 4-(methylamino)-2-(3-(pyrrolidine-1-carboxamido)phenylamino)pyrimidine-5-carboxamide]", "values": [{"measurement": "IC50", "setting": "JAK1", "value": "100 to 1000", "unit": "nM"}, {"measurement": "IC50", "setting": "JAK2", "value": "100 to 1000", "unit": "nM"}, {"measurement": "IC50", "setting": "JAK3", "value": "10 to 100", "unit": "nM"}, {"measurement": "IC50", "setting": "TYK2", "value": "10 to 100", "unit": "nM"}]}
